In paper PMC3499368, “Evolution of Minimal Specificity and Promiscuity in Steroid Hormone Receptors” (PLoS Genetics, 2012):
Read-outs that look alike come from different tables or passages of the source.

Tests used:
Format in all cases: cell-based
AncSR2-LBD = assay: luciferase reporter gene assay, Gal4-DBD fusion of AncSR2-LBD in CHO-K1 cells, activation; details: for EC50: AncSR2, representative dose activation curves (Fig. S4) and Table S5 sections c-i; for activation of AncSR2 (in words): luciferase reporter; for Ratio H1/H2 of EC50, preference for 21-OH group vs. H group / Ratio H2/H1 of EC50, preference for 21-OH group vs. H group: AncSR2, Table S5 section f, pairs H1/H2: 1/6, 2/7; for Ratio H1/H2 of EC50, preference for 11-OH vs. H group / Ratio H2/H1 of EC50, preference for 11-OH vs. H group: AncSR2, Table S5 section g, pairs H1/H2: 1/3, 2/4; for Ratio H1/H2 of EC50, preference for 17-acetyl vs. 17-hydroxy group / Ratio H2/H1 of EC50, preference for 17-acetyl vs. 17-hydroxy group: AncSR2, Table S5 section d, pairs H1/H2: 13/6, 17/8, 15/9, 16/10, 19/23
Text: To experimentally test these hypotheses, we synthesized cDNAs for the AncSR1 and AncSR2 LBD protein sequences, expressed them as Gal4-DBD fusion constructs, and characterized their sensitivity to hormones using luciferase reporter gene assays. […] It was unresponsive to a broad array of androgens, progestagens, and corticosteroids, as well as cholesterol (Figure 2A, Figure S3).
For AncSR2, we identified all plausible alternate reconstructions (those with posterior probability >0.20 excluding biochemically similar K/R, D/E, S/T, and I/L differences) and introduced each alternate state individually into the AncSR2 background using the Quikchange Mutagenesis kit (Stratagene), verified clones by sequencing, and repeated the activation assays with each version of AncSR2 (Figure S6). The ML AncSR2 sequence reconstructed on the ML tree had high baseline activation in the absence of ligand; this phenotype is almost certainly an artifact, because constitutive baseline activity is not present in any of AncSR2's extant descendants; it is well-established that some amino acid replacements can cause nuclear receptors to become constitutive by marginally stabilizing the active conformation in the absence of hormone. […] The “constitutive” Leu79 state is weakly supported on the ML tree (PP = 0.59), and has no support (PP = 0.00) on the phylogeny that is most parsimonious in terms of gene duplications and losses; in contrast, the “non-constitutive” state Met79 has PP = 0.41 on the ML tree and PP = 1.00 on the rearranged gene duplication/loss tree (Figure S12, Table S8). The AncSR2 sequence used for all experiments reported in the text therefore contains state Met79. The other alternate reconstructions were then reintroduced into this AncSR2 sequence: none qualitatively changed the receptor's sensitivity to the various classes of steroid hormones, except for A171V, which conferred constitutive activity (Figure S6).

AncSR1-LBD = assay: luciferase reporter gene assay, Gal4-DBD fusion of AncSR1-LBD in CHO-K1 cells, activation; details: for activation of AncSR1 (in words): luciferase reporter
Text: To experimentally test these hypotheses, we synthesized cDNAs for the AncSR1 and AncSR2 LBD protein sequences, expressed them as Gal4-DBD fusion constructs, and characterized their sensitivity to hormones using luciferase reporter gene assays.

AncSR1_Alt5 = assay: luciferase reporter assay, alternative reconstruction AncSR1_Alt5; details: for EC50: Alt5, Fig. S5B
Text: (§1) To determine the robustness of functional inferences to statistical uncertainty in the reconstruction of AncSR1 and AncSR2, we used two approaches. AncSR1 had too many ambiguously reconstructed sites to examine each such residue individually, so we computationally sampled from the posterior probability distribution of reconstructed amino acid states to generate a cloud of possible ancestral sequences, each harboring a large number of alternate states. Specifically, we generated 1,000,000 possible ancestral sequences by sampling from the posterior probability distribution of states at each site. […] We synthesized these five radically alternative ancestral reconstructions de novo and repeated the functional assays.
(§2) A) Distribution of posterior probabilities of 1 million protein sequences assembled by sampling amino acid states at each site from the posterior probability distribution for AncSR1 LBD. The ML reconstruction (AncSR1-ML) and the five alternative sequences with the highest posterior probability (Alt1-Alt5) in the 1 million samples are […]
(§3) The column height and error bars indicate the mean and SEM of three independent experiments, respectively. […]

AncSR1_Alt3 = assay: luciferase reporter assay, alternative reconstruction AncSR1_Alt3; details: for EC50: Alt3, Fig. S5B
Text: as §1, §2, §3

AncSR1_Alt2 = assay: luciferase reporter assay, alternative reconstruction AncSR1_Alt2; details: for EC50: Alt2, Fig. S5B
Text: as §1, §2, §3

AncSR1_Alt1 = assay: luciferase reporter assay, alternative reconstruction AncSR1_Alt1; details: for EC50: Alt1, Fig. S5B
Text: as §1, §2, §3

AncSR1_Alt4 = assay: luciferase reporter assay, alternative reconstruction AncSR1_Alt4; details: for EC50: Alt4, Fig. S5B
Text: as §1, §2, §3

[1] = AncSR1, Table S5 section b, pairs H1/H2: 18/19, 22/20, 8/23, listed as given under Hormone 1
[2] = AncSR1, representative dose activation curves (Fig. S3) and Table S5 section b
[3] = listed as given under Hormone 1
[4] = AncSR2, Table S5 section i, pairs H1/H2: 8/6, 17/13, 18/15, listed as given under Hormone 1
[5] = AncSR2, Table S5 section e, pairs H1/H2: 18/17, 9/6, 15/13, listed as given under Hormone 1

## C[C@]12CCC(=O)C=C1CC[C@@H]1[C@@H]2CC[C@]2(C)C(=O)CC[C@@H]12 [4-androstenedione]
AncSR2-LBD
  EC50: 411 nM
AncSR1-LBD; [1]
  Ratio H1/H2 of EC50, preference for aromatized A-ring: 144.93
  Ratio H2/H1 of EC50, preference for aromatized A-ring: 0.01
AncSR1-LBD; [2]
  EC50: > 10000 nM

## O=c1c(-c2ccc(O)cc2)coc2cc(O)cc(O)c12 [Genistein]
AncSR2-LBD
  activation of AncSR2 (in words): not activated
AncSR1-LBD
  activation of AncSR1 (in words): activated

## C[C@]12CCC(=O)C=C1CC[C@@H]1[C@@H]2CC[C@@]2(C)[C@H]1CC[C@]2(O)C(=O)CO [11-deoxycortisol]
AncSR2-LBD; [3]
  Ratio H1/H2 of EC50, preference for 21-OH group vs. H group: 0.08
  Ratio H2/H1 of EC50, preference for 21-OH group vs. H group: 12.67
  Ratio H1/H2 of EC50, preference for 11-OH vs. H group: 0.15
  Ratio H2/H1 of EC50, preference for 11-OH vs. H group: 6.53
AncSR2-LBD; read-out: EC50
  EC50: 1.5 nM

## C[C@H](O)[C@H]1CC[C@H]2[C@@H]3CCC4=CC(=O)CC[C@]4(C)[C@H]3CC[C@]12C [20α hydroxyprogesterone]
AncSR2-LBD; read-out: EC50
  EC50: 19 nM

## CC(C)CCC[C@@H](C)[C@H]1CC[C@H]2[C@@H]3CC=C4C[C@@H](O)CC[C@]4(C)[C@H]3CC[C@]12C [cholesterol]
AncSR2-LBD
  activation of AncSR2 (in words): completely unresponsive
AncSR1-LBD
  activation of AncSR1 (in words): unresponsive

## CC(=O)C1CCC2C3CCC4=CC(=O)CCC4C3CCC12C (stereo not drawn) [19-norprogesterone]
AncSR2-LBD; [4]
  Ratio H1/H2 of EC50, preference for 19-H vs. 19-methyl group: 0.29
  Ratio H2/H1 of EC50, preference for 19-H vs. 19-methyl group: 3.44
AncSR2-LBD
  EC50: 1.6 nM
AncSR1-LBD; [1]
  Ratio H2/H1 of EC50, preference for aromatized A-ring: 0.02
AncSR1-LBD; [2]
  EC50: > 10000 nM

## 11-deoxycorticosterone
AncSR1_Alt5; Alt5, fold activation at 10^-6 M, Fig. S5C
  activation (in words): none are activated
AncSR2-LBD; AncSR2, 11-deoxycorticosterone concentration used in inhibition assay
  EC80: 1.7 nM
AncSR2-LBD; [3]
  Ratio H1/H2 of EC50, preference for 21-OH group vs. H group: 0.08
  Ratio H2/H1 of EC50, preference for 21-OH group vs. H group: 13.10
  Ratio H1/H2 of EC50, preference for 11-OH vs. H group: 1.35
  Ratio H2/H1 of EC50, preference for 11-OH vs. H group: 0.74
AncSR2-LBD; read-out: EC50
  EC50: 0.42 nM
AncSR1-LBD; AncSR1-ML, fold activation at 10^-6 M, Fig. S5C
  activation (in words): none are activated
AncSR1_Alt3; Alt3, fold activation at 10^-6 M, Fig. S5C
  activation (in words): none are activated
AncSR1_Alt2; Alt2, fold activation at 10^-6 M, Fig. S5C
  activation (in words): none are activated
AncSR1_Alt1; Alt1, fold activation at 10^-6 M, Fig. S5C
  activation (in words): none are activated
AncSR1_Alt4; Alt4, fold activation at 10^-6 M, Fig. S5C
  activation (in words): none are activated

## C[C@]12CC[C@@H]3c4ccc(O)cc4CC[C@H]3[C@@H]1CCC2=O [estrone]
AncSR1_Alt5
  EC50: 223 nM
AncSR1-LBD; [2]
  EC50: 69 nM
AncSR1-LBD; AncSR1-ML, Fig. S5B
  EC50: 208 nM
AncSR1_Alt3
  EC50: 42 nM
AncSR1_Alt2
  EC50: 3000 nM
AncSR1_Alt1
  EC50: 133 nM
AncSR1_Alt4
  EC50: 844 nM

## C[C@]12CC[C@H]3[C@@H](CCC4=C[C@@H](O)CC[C@@]43C)[C@@H]1CC[C@@H]2O [4-androstenediol]
AncSR2-LBD; [3]
  Ratio H1/H2 of EC50, preference for 17-acetyl vs. 17-hydroxy group: 119.09
  Ratio H2/H1 of EC50, preference for 17-acetyl vs. 17-hydroxy group: 0.01
AncSR2-LBD; [5]
  Ratio H1/H2 of EC50, preference for 3-hydroxy vs. 3-keto group: 2.26
  Ratio H2/H1 of EC50, preference for 3-hydroxy vs. 3-keto group: 0.44
AncSR2-LBD
  EC50: 262 nM

## C[C@]12CC[C@@H]3c4ccc(O)cc4CC[C@H]3[C@@H]1C[C@@H](O)[C@@H]2O [estriol]
AncSR1_Alt5
  EC50: 390 nM
AncSR1-LBD; [2]
  EC50: 970 nM
AncSR1-LBD; AncSR1-ML, Fig. S5B
  EC50: 974 nM
AncSR1_Alt3
  EC50: 149 nM
AncSR1_Alt2
  EC50: 2220 nM
AncSR1_Alt1
  EC50: 322 nM
AncSR1_Alt4
  EC50: 2010 nM

## C[C@]12CC[C@H]3[C@@H](CC=C4C[C@@H](O)CC[C@@]43C)[C@@H]1CC[C@@H]2O [5-androstenediol]
AncSR2-LBD; [3]
  Ratio H1/H2 of EC50, preference for 17-acetyl vs. 17-hydroxy group: 21.84
  Ratio H2/H1 of EC50, preference for 17-acetyl vs. 17-hydroxy group: 0.05
AncSR2-LBD
  EC50: 83 nM

## CC(=O)C1CCC2C3CC=C4CC(O)CCC4(C)C3CCC12C (stereo not drawn) [5-pregnenolone]
AncSR2-LBD; read-out: EC50
  EC50: 3.8 nM
